In brackets after ≈: the same amount, converted by molar mass.
How the values were obtained:
Staphylococcus aureus [1] = test: Antimicrobial activity against Staphylococcus aureus 11011 assessed as increase in absorbance incubated for 20 to 22 hrs; format: functional; details: time 20-22 hrs
Acinetobacter baumannii [2] = test: Antimicrobial activity against Acinetobacter baumannii AB1901 assessed as increase in absorbance incubated for 20 to 22 hrs; format: functional; details: time 20-22 hrs
Pseudomonas aeruginosa [3] = test: Antimicrobial activity against Pseudomonas aeruginosa 25349 assessed as increase in absorbance incubated for 20 to 22 hrs; format: functional; details: time 20-22 hrs
Acinetobacter baumannii [4] = test: Antimicrobial activity against Acinetobacter baumannii AB1902 assessed as increase in absorbance incubated for 20 to 22 hrs; format: functional; details: time 20-22 hrs
Escherichia coli [5] = test: Antimicrobial activity against Escherichia coli ATCC 25922 assessed as increase in absorbance incubated for 20 to 22 hrs; format: functional; details: time 20-22 hrs
Staphylococcus aureus [6] = test: Antimicrobial activity against methicillin-resistant Staphylococcus aureus 43300 assessed as increase in absorbance incubated for 20 to 22 hrs; format: functional; details: time 20-22 hrs
Staphylococcus aureus [7] = test: Antimicrobial activity against Staphylococcus aureus 29213 assessed as increase in absorbance incubated for 20 to 22 hrs; format: functional; details: time 20-22 hrs
Salmonella typhimurium [8] = test: Antimicrobial activity against Salmonella typhimurium 7731 assessed as increase in absorbance incubated for 20 to 22 hrs; format: functional, Salmonella enterica subsp. enterica serovar Typhimurium; details: Salmonella enterica, time 20-22 hrs
Escherichia coli [9] = test: Antimicrobial activity against Escherichia coli K99 assessed as increase in absorbance incubated for 20 to 22 hrs; format: functional; details: time 20-22 hrs
Staphylococcus aureus [10] = test: Antimicrobial activity against Staphylococcus aureus 25923 assessed as increase in absorbance incubated for 20 to 22 hrs; format: functional; details: time 20-22 hrs
RAW264.7 = test: Cytotoxicity against mouse RAW264.7 cells assessed as cell death measured after 18 to 24 hrs by MTT assay; format: functional; details: time 18-24 hrs
Salmonella typhimurium [11] = test: Antimicrobial activity against Salmonella typhimurium 14028 assessed as increase in absorbance incubated for 20 to 22 hrs; format: functional, Salmonella enterica subsp. enterica serovar Typhimurium; details: Salmonella enterica, time 20-22 hrs
HEK-293T = test: Cytotoxicity against human HEK293T cells assessed as cell death measured after 18 to 24 hrs by MTT assay; format: functional; details: time 18-24 hrs
Pseudomonas aeruginosa [12] = test: Antimicrobial activity against Pseudomonas aeruginosa 27853 assessed as increase in absorbance incubated for 20 to 22 hrs; format: functional; details: time 20-22 hrs
Enterococcus faecalis = test: Antimicrobial activity against Enterococcus faecalis 29212 assessed as increase in absorbance incubated for 20 to 22 hrs; format: functional; details: time 20-22 hrs
[13] = Cytotoxicity against porcine IPEC-J2 cells assessed as cell death measured after 18 to 24 hrs by MTT assay; format: functional; details: Sus scrofa, time 18-24 hrs
[14] = Hemolytic activity in healthy human RBC assessed as hemolysis incubated for 1 hr by microplate reader; format: toxicity, cell-based; details: erythrocyte
Escherichia coli [15] = test: Antimicrobial activity against Escherichia coli K88 assessed as increase in absorbance incubated for 20 to 22 hrs; format: functional; details: time 20-22 hrs
[16] = test system: Staphylococcus epidermidis; test: Antimicrobial activity against Staphylococcus epidermidis 12228 assessed as increase in absorbance incubated for 20 to 22 hrs; format: functional; details: time 20-22 hrs

Row | SMILES | MIC (Staphylococcus aureus [1]) [µM] | MIC (Acinetobacter baumannii [2]) [µM] | MIC (Pseudomonas aeruginosa [3]) [µM] | MIC (Acinetobacter baumannii [4]) [µM] | MIC (Escherichia coli [5]) [µM] | MIC (Staphylococcus aureus [6]) [µM] | MIC (Staphylococcus aureus [7]) [µM] | MIC (Salmonella typhimurium [8]) [µM] | MIC (Escherichia coli [9]) [µM] | MIC (Staphylococcus aureus [10]) [µM] | IC10 (RAW264.7) [µM] | MIC (Salmonella typhimurium [11]) [µM] | IC10 (HEK-293T) [µM] | MIC (Pseudomonas aeruginosa [12]) [µM] | MIC (Enterococcus faecalis) [µM] | IC10 [13] [µM] | HC10 [14] [µM] | MIC (Escherichia coli [15]) [µM] | MIC [16] [µM]
1 | CC(C)(O/N=C(\C(=O)N[C@@H]1C(=O)N2C(C(=O)[O-])=C(C[n+]3ccccc3)CS[C@H]12)c1csc(N)n1)C(=O)O [CEFTAZIDIME] | > 64 | 0.5 (≈ 0.273 µg/mL) | 0.5 (≈ 0.273 µg/mL) | > 64 |  |  |  |  |  |  |  |  |  |  |  |  |  |  | 
2 | O=C(O)c1cn(C2CC2)c2cc(N3CCNCC3)c(F)cc2c1=O [CIPROFLOXACIN] | > 64 | 0.25 (≈ 0.0828 µg/mL) | 0.25 (≈ 0.0828 µg/mL) | > 64 |  |  |  |  |  |  |  |  |  |  |  |  |  |  | 
3 | CN[C@H](CC(C)C)C(=O)N[C@H]1C(=O)N[C@@H](CC(N)=O)C(=O)N[C@H]2C(=O)N[C@H]3C(=O)N[C@H](C(=O)N[C@H](C(=O)O)c4cc(O)cc(O)c4-c4cc3ccc4O)[C@H](O)c3ccc(c(Cl)c3)Oc3cc2cc(c3O[C@@H]2O[C@H](CO)[C@@H](O)[C@H](O)[C@H]2O[C@H]2C[C@](C)(N)[C@H](O)[C@H](C)O2)Oc2ccc(cc2Cl)[C@H]1O [VANCOMYCIN] | > 64 | 32 (≈ 46.4 µg/mL) | > 64 | > 64 |  |  |  |  |  |  |  |  |  |  |  |  |  |  | 
4 | CCCCCCCCCC(=O)NCCCC[C@H](N)C(=O)NCC(=O)NCC(=O)NCC(=O)N[C@H](CCCNC(=N)N)C(=O)N[C@@H](CCCNC(=N)N)C(=O)N[C@@H](CCCNC(=N)N)C(=O)N1CCC[C@H]1C(=O)N[C@@H](CS)C(=O)O |  |  |  |  | 16 (≈ 18.2 µg/mL) | 32 (≈ 36.5 µg/mL) | 32 (≈ 36.5 µg/mL) | 32 (≈ 36.5 µg/mL) | 16 (≈ 18.2 µg/mL) | 32 (≈ 36.5 µg/mL) | 256 | 16 (≈ 18.2 µg/mL) | 256 | 8 (≈ 9.12 µg/mL) | 32 (≈ 36.5 µg/mL) | 256 | 256 | 16 (≈ 18.2 µg/mL) | 32 (≈ 36.5 µg/mL)
5 | CC1(C)S[C@@H]2[C@H](NC(=O)Cc3ccccc3)C(=O)N2[C@H]1C(=O)O [PENICILLIN G SODIUM] | > 64 | 64 | > 64 | > 64 |  |  |  |  |  |  |  |  |  |  |  |  |  |  | 
6 | CCCCCCCCCC(=O)NCCCC[C@H](NC(=O)[C@@H](N)CS)C(=O)NCC(=O)NCC(=O)NCC(=O)N[C@H](CCCNC(=N)N)C(=O)N[C@@H](CCCNC(=N)N)C(=O)N[C@@H](CCCNC(=N)N)C(=O)N1CCC[C@H]1C(=O)O |  |  |  |  | 32 (≈ 36.5 µg/mL) | 64 (≈ 73 µg/mL) | 64 (≈ 73 µg/mL) | 64 (≈ 73 µg/mL) | 32 (≈ 36.5 µg/mL) | 64 (≈ 73 µg/mL) | 256 | 32 (≈ 36.5 µg/mL) | 256 | 16 (≈ 18.2 µg/mL) | 64 (≈ 73 µg/mL) | 256 | 256 | 32 (≈ 36.5 µg/mL) | 128 (≈ 146 µg/mL)
7 | CCCCCCCCCCCC(=O)NCCCC[C@H](NC(=O)[C@@H](N)CSSC[C@H](N)C(=O)N[C@@H](CCCCNC(=O)CCCCCCCCCCC)C(=O)NCC(=O)NCC(=O)NCC(=O)N[C@H](CCCNC(=N)N)C(=O)N[C@@H](CCCNC(=N)N)C(=O)N[C@@H](CCCNC(=N)N)C(=O)N1CCC[C@H]1C(=O)O)C(=O)NCC(=O)NCC(=O)NCC(=O)N[C@H](CCCNC(=N)N)C(=O)N[C@@H](CCCNC(=N)N)C(=O)N[C@@H](CCCNC(=N)N)C(=O)N1CCC[C@H]1C(=O)O |  |  |  |  | 4 (≈ 9.34 µg/mL) | 18 (≈ 42 µg/mL) | 16 (≈ 37.4 µg/mL) | 32 (≈ 74.7 µg/mL) | 32 (≈ 74.7 µg/mL) | 32 (≈ 74.7 µg/mL) | 128 | 16 (≈ 37.4 µg/mL) | 128 | 8 (≈ 18.7 µg/mL) | 16 (≈ 37.4 µg/mL) | 128 | 128 | 16 (≈ 37.4 µg/mL) | 16 (≈ 37.4 µg/mL)

Reference: ChEMBL document CHEMBL6087476, “Positive Charge-Concentrated Dimeric Lipopeptides with Enhanced Protease Resistance: A Potential Solution for Systemic Bacterial Infections” (J Med Chem, 2025)
